Laboratory results taken from US20170334899A1, “AMINO-SUBSTITUTED ISOTHIAZOLES” (Bayer Pharma Aktiengesellschaft, priority 2014, published 2017).

system: HeLa; experiment: Proliferation assay (crystal violet), HeLa; assay type: cell-based; conditions: Homo sapiens, HeLa, 96 h, HeLa cells; 4 days incubation; crystal violet staining; read-out: IC50 inhibition of proliferation, HeLa
How it was run: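 Four-day compound exposure (0.001-10 μM, 0.5% DMSO final) began 24 h after seeding 1000-5000 cells/well in medium with 10% fetal calf serum. Cell number read by crystal violet absorbance at 595 nm, scaled between day-zero plate and untreated control; 4-parameter fit gave IC50.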

SMILES	IC50 [nM]
Cc1nsc(Nc2cncc(C(F)(F)F)n2)c1C(=O)Nc1ccc(OCCCNC(=O)OC(C)(C)C)nc1 [Example 190, tert-butyl {3-[(5-{[(3-methyl-5-{[6-(trifluoromethyl)pyrazin-2-yl]amino}-1,2-thiazoL-4-yl)carbonyl]amino}pyridin-2-yl)oxy]propyl}carbamate]	420
Cc1nsc(Nc2cnc(C(F)(F)F)cn2)c1C(=O)Nc1ccc(OC2CCN(C(=O)OC(C)(C)C)CC2)c(F)c1 [Example 217, tert-butyl 4-(2-fluoro-4-{[(3-methyl-5-{[5-(trifluoromethyl)pyrazin-2-yl]amino}-1,2-thiazol-4-yl)carbonyl]amino}phenoxy)piperidine-1-carboxylate]	170
Cc1nsc(Nc2cncc(C(F)(F)F)n2)c1C(=O)Nc1ccc(OC2CCN(CC(F)F)CC2)c(F)c1 [Example 224, N-(4-{[1-(2,2-difluoroethyl)piperidin-4-yl]oxy}-3-fluorophenyl)-3-methyl-5-{[6-(trifluoromethyl)pyrazin-2-yl]amino}-1,2-thiazole-4-carboxamide]	320
Cc1nsc(Nc2cnc(C(F)(F)F)cn2)c1C(=O)Nc1ccc(F)c(OC2CCN(C(=O)OC(C)(C)C)CC2)c1 [Example 229, tert-butyl 4-(2-fluoro-5-{[(3-methyl-5-{[5-(trifluoromethyl)pyrazin-2-yl]amino}-1,2-thiazol-4-yl)carbonyl]amino}phenoxy)piperidine-1-carboxylate]	190
Cc1nsc(Nc2cncc(C(F)(F)F)n2)c1C(=O)Nc1ccc(OCCCN)nc1 [Example 209, N-[6-(3-aminopropoxy)pyridin-3-yl]-3-methyl-5-{[6-(trifluoromethyl)pyrazin-2-yl]amino}-1,2-thiazole-4-carboxamide]	> 10000
Cc1nsc(Nc2cnc(C(F)(F)F)cn2)c1C(=O)Nc1ccc(OCCNC(=O)OC(C)(C)C)c(F)c1 [Example 215, tert-butyl [2-(2-fluoro-4-{[(3-methyl-5-{[5-(trifluoromethyl)pyrazin-2-yl]amino}-1,2-thiazol-4-yl)carbonyl]amino}phenoxy)ethyl]carbamate]	140
Cc1nsc(Nc2cnc(C(F)(F)F)cn2)c1C(=O)Nc1ccc(OC2CCN(C)CC2)nc1 [Example 220, 3-methyl-N-{6-[(1-methylpiperidin-4-yl)oxy]pyridin-3-yl}-5-{[5-(trifluoromethyl)pyrazin-2-yl]amino}-1,2-thiazole-4-carboxamide]	6200

Second part, the compound after the results:

IC50 [nM]	SMILES
1800	Cc1nsc(Nc2cnc3ccccc3n2)c1C(=O)Nc1ccc(Oc2cccnc2)nc1 [Example 231, 3-methyl-N-[6-(pyridin-3-yloxy)pyridin-3-yl]-5-(quinoxalin-2-ylamino)-1,2-thiazole-4-carboxamide]
4200	Cc1nsc(Nc2cnc3ccccc3n2)c1C(=O)Nc1ccc(NCCNC(=O)OC(C)(C)C)nc1 [Example 244, tert-butyl (2-{[5-({[3-methyl-5-(quinoxalin-2-ylamino)-1,2-thiazol-4-yl]carbonyl}amino)pyridin-2-yl]amino}ethyl)carbamate]
6700	Cc1nsc(Nc2cnc3ccccc3n2)c1C(=O)Nc1ccc(OCCC(=O)OC(C)(C)C)nc1 [Example 198, tert-butyl 3-{[5-({[3-methyl-5-(quinoxalin-2-ylamino)-1,2-thiazol-4-yl]carbonyl}amino)pyridin-2-yl]oxy}propanoate]
580	Cc1nsc(Nc2cc(C#N)ccn2)c1C(=O)Nc1ccc(Oc2cccc(C(F)(F)F)c2)nc1 [Example 230, 5-[(4-cyanopyridin-2-yl)amino]-3-methyl-N-{6-[3-(trifluoromethyl)phenoxy]pyridin-3-yl}-1,2-thiazole-4-carboxamide]
1200	Cc1nsc(Nc2cnc3ccccc3n2)c1C(=O)Nc1ccc(OC2CCN(C(=O)OC(C)(C)C)CC2)nc1 [Example 18, tert-Butyl 4-{[5-({[3-methyl-5-(quinoxalin-2-ylamino)-1,2-thiazol-4-yl]carbonyl}-amino)pyridin-2-yl]oxy}piperidine-1-carboxylate]
